Test results reported in patent US8486968B2, “Compounds” (Boehringer Ingelheim International GmbH, priority 2010, dated 2013).

Tests used:
mPGES-1 [1] = target: T1, mPGES-1 (Homo sapiens, UniProt O14684); assay: mPGES-1 enzyme assay (HTRF detection of PGE2); type: biochemical; design: made in house; host or cells: Rosetta E. coli (membrane/microsome fraction); conditions: recombinant human mPGES-1 microsomes, PGH2 2 μM, Table A; read-out: mPGES-1 inhibitory effect, IC50, enzyme assay
T1 sequence (O14684 1-152): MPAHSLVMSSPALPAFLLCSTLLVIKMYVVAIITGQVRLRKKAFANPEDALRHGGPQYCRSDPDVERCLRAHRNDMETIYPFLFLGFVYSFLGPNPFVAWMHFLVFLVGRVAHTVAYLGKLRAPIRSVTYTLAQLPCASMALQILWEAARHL
Method: Microsomes from Rosetta E. coli bacteria expressing recombinant human mPGES-1 can be derived as described below:
Inoculate 5 ml LB with Ampicilin (50 μg/ml) and Chloramphenicol (34 μg/ml) with bacteria from freeze culture. Incubate 8 h at 37° C. with 200 rpm. Thereafter, inoculate 500-1000 ml LB containing Amp and Chloro with the 5 ml on culture and grow to OD640 of 0.8-1.0. Chill the culture to +4° C. before induction. Induce the culture with IPTG at a final concentration of 400 μM. Express the protein at room temp 18-23° C. with 200 rpm shaking over night.
The following steps can be performed on the following day: • 1. Spin down the cells in 250 ml centrifuge flasks for 15 min at 7000 rpm (Beckmann Coulte Avanti J-E centrifuge) • 2. Dissolve the pellet from 250 ml culture in 12.5 ml homogenization buffer • 3. (15 mM Tris-HCL pH8, 1 mM EDTA pH8, […], 2.5 mM GSH, 1 Tablet Protease inhibitor per 50 ml buffer) • 4. Disintegrate the cells by sonication, 5×10 seconds at 48% amplitude of a 750 W sonifier • 5. Add 2.5 ml MgCl2 (100 mM) and DNase 12.5 μl (0.8 mg/ml) and incubate on ice for 30 min • 6. Spin down the bacteria debris and save the supernatant, 7000 rpm for 15 min • 7. Isolate the protein containing membranes in the supernatant by ultracentrifugation 120000×g for 2 hour at 4° C. (Sorvall T880 rotor). • 8. Discard the supernatant and dissolve the pellet in 20 mM Potassium phosphate buffer pH 7.4 (KH2PO4 and K2HPO4) buffer by sonication (5×10 s, 30% of a 50 W sonifier) and aliquot the enzyme and store aliquots at −80° C.
Before each experiment is performed an aliquot of the enzyme is thawed and it can then be dissolved in 0.1 M Potassium phosphate buffer pH7.4 (KH2PO4 and K2HPO4) buffer containing 2.5 mM GSH.
The aim of this assay is the determine the affinity of a test compound for the mPGES-1 enzyme.
47 μl of recombinant human mPGES-1 (˜0.5 μg protein/well) containing microsomal suspension in a buffer containing GSH, (2.5 mmol/L L-Glutathione reduced, dissolved in 0.1 mol/L Phosphat Buffer pH 7.4) is dispensed in a 384-well plate and thereafter 1 μl of the test compound(s) is/are added and incubated for 25 minutes at room temperature. The enzyme reaction is started by the addition of 2 μl PGH2 (final conc. 2 μM) dissolved in water-free Diglyme. After 60 seconds the reaction is terminated by addition of a stop solution containing FeCl2 (10 μL 0.074 mol/l FeCl2). The samples are diluted between 1:25 in PBS (Phosphate Buffered Saline). 10 μl of the diluted samples are transferred to 384-well low volume plate. In order to quantify the amount of PGE2 that has been formed, a homogenous time resolved fluorescent (HTRF) detecting of PGE2 has been performed using a commercially available kit from Cisbio according to the manufactures recommendation. This HTRF-based assay has been described in detail (see: Goedken et al., J Biomol Screen, 2008, 13(7), 619-625). Briefly, the diluted samples are mixed with 5 μl PGE2-d2 conjungate and 5 μl anti-PGE2 cryptate conjungate. After an incubation period of the plates over night, the fluorescence is measured by the use of an appropriate microplate reader.
The fluorescence of Europium cryptate (maxex=307 nm, maxem=620 nm) and d2-PGE2 (maxex=620 nm, maxem=665 nm) are measured.
The extent of the specific HTRF is measured as a ratio of the emission intensity at 665 nm vs. that at 620 nm at an excitation puls of 320 nm. The quantification plate contains also wells with different concentrations of PGE2 as calibration curve for the calculation of the PGE2 concentrations from the HTRF ratio values.
From all mPGES enzyme assay the background is subtracted and the IC50 is calculated over a nonlinear regression with conventional software.

mPGES-1 [2] = target: T1, mPGES-1; assay: A549 cell-based assay (PGE2 formation, IL-1β stimulated, 50% human serum); design: host or cells: A549 cells; conditions: A549 cells, IL-1β 5 ng/ml, 20-24 h, Table B, read-out: mPGES-1 inhibitory effect, IC50, cell assay
Method: Although the enzymatic assay is a high throughput assay the disadvantage is that it uses a recombinant protein which is not in its natural environment. Accordingly a cellular assay was established in which a cell line of human origin (A549) expressing the mPGES-1 protein was used. In addition in order to mimic the situation in humans in which compounds can be bound to plasma proteins 50% human serum is added in the assay. By having the combination of testing mPGES-1 in a cellular environment and the presence of 50% human serum this assay has a higher relevance to judge the therapeutic potential of a mPGES-inhibitor than the pure enzyme assay.
A549 cells (ATCC: CCL-185) are grown to about 90% confluence in F-12K Nutrient Mixture (Kaighn's Mod. Gibco) containing 10% FBS in a humified incubator at 37° C. and 5% CO2. Cells were detached using Trypsin-EDTA. A549 cells were seeded in a 384-well collagene plate at a density of 7000 cells/well (50 μl) in F-12 medium containing 1% Penicillin-Streptomycin and 50% human serum. The cells were allowed to attach for 3-4 h. After that the cells were incubated for 20-24 h in F-12k medium supplemented with 50% human serum, 1% Penicillin-Streptomycin and containing IL-1β at a final concentration of 5 ng/ml as well as 10 nM arachidonic acid in the presence of a vehicle or a test compound. The total volume is 100 μl.
Concentrations of PGE2 in the cell free medium (10 μl) were measured using a commercially available HTRF kit from Cisbio (as described above). The PGE2 formation in the absence of test compound was taken as 100%.
IC50 values were derived from at 6-8 point titrations using conventional software.

Structure (SMILES) | IC50 (mPGES-1 [1]) [nM] | IC50 (mPGES-1 [2]) [nM]
Cn1c(Nc2cc(CNC(=O)C3(C(F)(F)F)CC3)ccc2Cl)nc2cc(C(=O)N[C@H]3CC[C@H](C(F)(F)F)CC3)c(N3CCC(C(F)(F)F)CC3)nc21 [Example 1, N-(trans-4-Trifluoromethyl-cyclohexyl)-2-{2-chloro-5-[(1-trifluoromethyl-cyclopropyl-carbonylamino)methyl]-phenylamino}-5-[4-trifluoromethyl-piperidinyl]-3-methyl-3H-imidazo[4,5-b]pyridine-6-carboxamide] | 5 | 7
Cn1c(Nc2c(Cl)ccc(CNC(=O)C(C)(C)C)c2Cl)nc2cc(C(=O)N[C@H]3CC[C@H](C(F)(F)F)CC3)c(N3CCC(F)CC3)nc21 [Example 2, N-(trans-4-Trifluoromethyl-cyclohexyl)-2-{2,6-dichloro-3-[(2,2-dimethyl-propionylamino)-methyl]-phenylamino}-5-[-fluoro-piperidinyl]-3-methyl-3H-imidazo[4,5-b]pyridine-6-carboxamide] | 8 | 2
CC(C)(C)C(=O)NCc1ccc(Cl)c(Nc2nc3cc(C(=O)N[C@H]4CC[C@H](C(F)(F)F)CC4)c(N4CCC(F)CC4)nc3[nH]2)c1Cl [Example 3, N-(trans-4-Trifluoromethyl-cyclohexyl)-2-{2,6-dichloro-3-[(2,2-dimethyl-propionylamino)-methyl]-phenylamino}-5-[4-fluoro-piperidinyl]-3H-imidazo[4,5-b]pyridine-6-carboxamide] | 3 | 2
CN(CC(F)F)c1nc2[nH]c(Nc3c(Cl)ccc(CNC(=O)C(C)(C)C)c3Cl)nc2cc1C(=O)N[C@H]1CC[C@H](C(F)(F)F)CC1 [Example 4] | 1 | 3
CN(CC(F)F)c1nc2c(cc1C(=O)N[C@H]1CC[C@H](C(F)(F)F)CC1)nc(Nc1cc(CNC(=O)C3(C(F)(F)F)CC3)ccc1Cl)n2C [Example 5] | 9 | 58
COCCN(C)c1nc2c(cc1C(=O)N[C@H]1CC[C@H](C(F)(F)F)CC1)nc(Nc1cc(CNC(=O)C3(C(F)(F)F)CC3)ccc1Cl)n2C [Example 6] | 9 | 
CC(C)(C)C(=O)NCc1ccc(Cl)c(Nc2nc3cc(C(=O)N[C@H]4CC[C@H](C(F)(F)F)CC4)c(N4CC[C@@H](F)C4)nc3[nH]2)c1Cl [Example 7] | 4 | 11
CC(C)(C)C(=O)NCc1ccc(Cl)c(Nc2nc3cc(C(=O)N[C@H]4CC[C@H](C(F)(F)F)CC4)c(N4CC[C@H](F)C4)nc3[nH]2)c1Cl [Example 8] | 2 | 11
CC(C)(C)C(=O)NCc1ccc(Cl)c(Nc2nc3cc(C(=O)N[C@H]4CC[C@H](C(F)(F)F)CC4)c(N4CCC(F)(F)C4)nc3[nH]2)c1Cl [Example 9] | 2 | 6
CN(CC(F)F)c1nc2[nH]c(Nc3c(Cl)ccc(CNC(=O)C(C)(C)C)c3Cl)nc2cc1C(=O)NC1CCC(F)(F)CC1 [Example 10] | 1 | 8
CN(CC(F)F)c1nc2[nH]c(Nc3c(Cl)ccc(CNC(=O)C(C)(C)C)c3Cl)nc2cc1C(=O)NCC(F)F [Example 11] | 10 | 47
CC(C)(C)C(=O)NCc1ccc(Cl)c(Nc2nc3cc(C(=O)N[C@H]4CC[C@H](C(F)(F)F)CC4)c(N4CC5CC5C4)nc3[nH]2)c1Cl (some centres unmarked) [Example 12] | 2 | 2
CC(C)(C)OC(=O)NCc1cc(F)c(Cl)c(Nc2nc3cc(C(=O)N[C@H]4CC[C@H](C(F)(F)F)CC4)c(N4CCC(F)CC4)nc3[nH]2)c1Cl [Example 14, N-(trans-4-Trifluoromethyl-cyclohexyl)-2-{2,6-dichloro-5-fluoro-3-[(tert.butoxycarbonylamino)-methyl]-phenylamino}-5-[4-fluoro-piperidinyl]-3H-imidazo[4,5-b]pyridine-6-carboxamide] | 35 | 86
Cn1c(Nc2c(Cl)ccc(CNC(=O)C(C)(C)C)c2Cl)nc2cc(C(=O)NC(Cc3ccccc3)C(F)(F)F)c(N3CCC(C(F)(F)F)CC3)nc21 (centres unmarked) [Example 39] |  | 25
